Reference: US10081648B2, “Lipid-based platinum compounds and nanoparticles” (AKAMARA THERAPEUTICS, INC., priority 2013, dated 2018)

Key:
[1] = tested on: MDA-MB-231, SKOV-3, HeLa, SW-620 and HCT-116 cell lines; test: MTT cell viability assay, 72 h; type: cell-based, human; details: for inhibition of cell viability: 0-25 μM concentration range, dose-response relationship; for IC50 compared with oxaliplatin: human cancer cell lines
Protocol: FIGS. 7A-7F show MTT assay results for some exemplary compounds disclosed herein. Graphical representation of MTT assay for the activity of exemplary compounds examined on various human cancer cell lines. […] The IC50 values of compound/oxaliplatin tested in cell-lines are mentioned alongside, in corresponding colors as the cell viability curve.
Cell culture: Mammalian cells were grown in specific culture media, supplemented with 10% fetal bovine serum (FBS) and antibiotics in a humidified environment containing 5% CO2 at 37° C.
Cell viability assay: The effects of supramolecular platinum conjugates on the viability of cancer cells were measured using MTT assay. Cells in 100 μl culture-media were plated in 96-well plates (3000-5000 cells/well) and allowed to adhere overnight in a humidified environment containing 5% CO2 at 37° C. Fresh media (100 μL) containing different concentrations of compounds were added to cells and incubated for 72 hours. Following incubation, cell viability was determined using the MTT assay. The MTT assay measures cell viability through assessment of active mitochondrial dehydrogenase, which converts MTT into water-insoluble purple formazan crystals. Cell viability was plotted as dose-response curves using curve fitting.
The effects of exemplary compounds (compound 25, 26, 27, 28, 31, 48) were evaluated in vitro in comparison with oxaliplatin in breast cancer (MDA-MB-231), ovarian cancer (SKOV-3), cervical cancer (HeLa) and colorectal cancer (SW-620 and HCT-116) cell lines.

MDA-MB-231 cells = test: Cellular uptake of platinum compounds (AAS); type: cell-based; details: 50 μM platinum equivalent, 5 hrs
Protocol: Cells were incubated with 50 μM concentration of platinum compounds for 5 hours. The amount of platinum accumulated in cells was measured by AAS and expressed as ng of platinum accumulated per 10^5 cells.
Cellular uptake of platinum compounds: MDA-MB-231 cells (1×10^6) were seeded in 2 ml media per well of a 6-well plate and grown for 24 hrs. Required volume of compounds was added to achieve a final concentration of 50 μM platinum equivalent per well. Cells were incubated for 5 hrs after adding the compounds, then washed twice with PBS, harvested by trypsinization, resuspended in PBS and counted. Cells were centrifuged and pellets stored at −80° C. until further processing. The cell pellets were digested with 100 μl nitric acid at 70° C. for 4 hours. Following digestion, the samples were diluted in 2% HCl and the quantity of accumulated platinum was determined using Atomic absorption spectroscopy (AAS). The assay was validated using a linear standard curve, generated from serial dilutions of certified stock platinum standard and cellular uptake of platinum was expressed as ng of platinum per 1×10^5 cells.

| SMILES | inhibition of cell viability [1] | IC50 compared with oxaliplatin [1] | cellular uptake of platinum (MDA-MB-231 cells) |
| --- | --- | --- | --- |
| CC(C)CCC[C@@H](C)[C@H]1CC[C@H]2[C@@H]3CC=C4C[C@@H](OCCOCC[N+]5(CC(=O)[O-])CC(=O)[O][Pt]56[NH][C@@H]5CCCC[C@H]5[NH]6)CC[C@]4(C)[C@H]3CC[C@]12C (some centres unmarked) [Compound 28] | significant inhibition of cell viability | lower than oxaliplatin | – |
| O=C1[O][Pt]2([NH][C@@H]3CCCC[C@H]3[NH]2)[O]C1=O [oxaliplatin] | – | – | similar |
| CC(C)CCC[C@@H](C)[C@H]1CC[C@H]2[C@@H]3CC=C4C[C@@H](OCCNC(=O)C[N+]5(CC(=O)[O-])CC(=O)[O][Pt]56[NH][C@@H]5CCCC[C@H]5[NH]6)CC[C@]4(C)[C@H]3CC[C@]12C (some centres unmarked) [Compound 27] | significant inhibition of cell viability | lower than oxaliplatin | – |
| CC(C)CCC[C@@H](C)[C@H]1CC[C@H]2[C@@H]3CC=C4C[C@@H](OCCCC5=CC(=O)[O][Pt]6([NH][C@@H]7CCCC[C@H]7[NH]6)[O]5)CC[C@]4(C)[C@H]3CC[C@]12C [Compound 31] | significant inhibition of cell viability | lower than oxaliplatin | – |
| CC(C)CCC[C@@H](C)[C@H]1CCC2C3CC=C4C[C@@H](OCC[N+]5(CC(=O)[O-])CC(=O)[O][Pt]56[NH][C@@H]5CCCC[C@H]5[NH]6)CC[C@]4(C)C3CC[C@@]21C (some centres unmarked) [Compound 25] | significant inhibition of cell viability | lower than oxaliplatin | – |
| CC(C)CCC[C@@H](C)[C@H]1CC[C@H]2[C@@H]3CC=C4C[C@@H](OC(=O)NCC[N+]5(CC(=O)[O-])CC(=O)[O][Pt]56[NH][C@@H]5CCCC[C@H]5[NH]6)CC[C@]4(C)[C@H]3CC[C@]12C (some centres unmarked) [Compound 26] | significant inhibition of cell viability | lower than oxaliplatin | – |
